Data as given in US20230157945A1, “Nasal Hygiene Method and Formulation” (ACTUAL NATURAL HEALTH & WELLNESS PRODUCTS, INC., priority 2018, published 2023).

Test system: human nasal passage
Assay: testing of the nasal spray / nasal wash composition applied to the nasal passages
Assay type: in vivo
Settings: CBD at 0.3% by weight in the composition
Procedure: A homogenized mixture of water, cannabinoid, an olfactory stimulant, and inorganic salt when applied to a nasal passage as a mist delivering 0.08 mL to 0.18 mL in each nostril is effective as a nasal wash. A solubilizing agent particularly suited for cannabinoids may also be added, such as those disclosed in U.S. patent application Ser. No. 17/527,465, filed Nov. 16, 2021.
Practicing nasal hygiene by the use of the method of applying to a person's nostril a mist of nasal wash composition comprising the product of compounding under homogenizing conditions water, an amount of a source of chlorine dioxide, 0.1 to 1% by weight cannabinoid; 0.1 to 3% by weight of olfactory stimulant; and 0 to 5% by weight of at least one fixative compound; and blowing air out of the nostril. and composition of the invention, nasal irritation is reduced. […]
It is a feature of the invention that the practice of nasal hygiene according to the invention requires only moderate and convenient quantities of the composition. It is sufficient for the user to place a convenient quantity of the composition, which can range from about 0.3 to 3 milliliters, into each nostril and retain it for a holding period which can range from a fraction of a minute to about ten minutes or as long as comfortable, and then remove it as by blowing the nose. […]

SMILES: C=C(C)[C@@H]1CCC(C)=C[C@H]1c1c(O)cc(CCCCC)cc1O [CBD, Cannabidiol]
- pain relief: effective pain relief
